Positions of bridges follow the written chain, without caps; N, C: chain ends. Non-standard residues stand in square brackets, D forms with d. Residues, ends and D or L forms follow the SMILES beside them. *: point of attachment. X1 = NC[C@@H](CC(=O)*)c1cccc(Cl)c1; Dab = NCC[C@H](N)C(=O)O; Dap = NC[C@H](N)C(=O)O
Tests used:
kidney cell = settings: cited from earlier work
[1] = rat, in vivo; cited from earlier work
healthy subjects [2] = assay: Safety and tolerability (adverse events, laboratory tests, ECG), first-in-human SAD/MAD study, 1-h i.v. infusion; settings: in vivo
kidney = settings: mouse, in vivo; cited from earlier work
healthy subjects [3] = assay: Safety and tolerability (adverse events, laboratory tests, ECG), first-in-human SAD/MAD study, 1-h i.v. infusion; type: in vivo
Experimental: This was a single-center, phase 1, randomized, double-blind, placebo-controlled, first-in-human study to assess the safety, tolerability, and PK of SPR206 following SAD and MAD administrations (Fig. 7). In the SAD phase, subjects received a single i.v. dose of SPR206, and in the MAD phase, subjects received i.v. doses of SPR206 every 8 h (q8h) over a period of 7 to 14 days. SPR206 was administered as a 1 h i.v. infusion.
In the SAD phase, healthy subjects were screened within 28 days prior to dosing and admitted to the clinical facility on day −1. A single i.v. dose of SPR206 or placebo was administered on day 1. Following completion of all safety assessments and sampling for PK analyses, subjects were discharged on day 2. A follow-up visit occurred 5 to 7 days after day 1 dosing.
In the SAD phase, subjects were randomized to one of seven cohorts consisting of 10-, 25-, 50-, 100-, 200-, 300-, and 400-mg doses of SPR206. Within each cohort, two subjects received placebo and six subjects received SPR206. Two subjects (sentinels) were dosed with SPR206 or placebo 48 h prior to the remaining subjects. The remaining six subjects were only dosed after no safety concerns were identified in the sentinel subjects. After each dose cohort had completed study drug dosing and safety evaluations, a safety monitoring group (SMG) reviewed blinded cumulative safety data (including day 5 to 7 follow-up data) to confirm the safety and tolerability of SPR206. Blood and urine samples were collected for assessment of PK parameters.
In the MAD phase, all subjects were admitted to the clinical facility on day −1. Dosing commenced on the morning of day 1. Three doses were administered daily at approximately 8 (±0.5)-hour intervals for a total of 7 consecutive days (cohorts 9 through 12) and 14 consecutive days (cohort 13). The last dose was administered on the morning of day 14. Subjects were discharged on day 16 following completion of all PK sample collection and safety assessments, and a follow-up visit occurred 12 to 14 days after the last dose.
The MAD phase began after completion of the SAD phase, and the appropriate starting dose level was established. Two subjects received placebo, and six subjects received SPR206 doses of 25, 50, 100, and 150 mg q8h for 7 days and 100 mg q8h for 14 days. In each cohort of the MAD, two subjects (sentinels) began dosing with SPR206 or placebo 72 h prior to the remaining subjects in this cohort. The remaining six subjects were only dosed after no safety concerns were identified by the principal investigator. After each MAD dose cohort had completed administration of study drug and all evaluations, the safety monitoring group reviewed blinded cumulative safety data (including the day 19 to 21 follow-up data) to confirm the safety and tolerability of the study drug. Blood and urine samples were collected to measure SPR206 drug levels to determine SPR206 PK parameters.
Safety assessments included clinical laboratory testing (hematology, coagulation, serum chemistry, urinalysis), vital signs (blood pressure, heart rate, body temperature, respiratory rate), physical examination, and triplicate 12-lead ECG to assess corrected QT interval by Fredericia (QTcF). In the SAD phase, continuous cardiac monitoring was performed from 1 h predose through 24 h postdose. Adverse events were recorded at each study visit.
Serum creatinine concentrations were measured from the clinical laboratory tests performed on days −1 and 15. Urine creatinine concentration were measured using 24 h collections prior to the first dose on day 1 and over 24 to 48 h following the start of infusion of the last dose (day 14).

[4] = MAD, 25 mg q8h × 7 days (n = 6)
[5] = MAD, 50 mg q8h × 7 days (n = 6)
[6] = MAD, 100 mg q8h × 7 days (n = 6)
[7] = MAD, 100 mg q8h × 14 days (n = 6)
[8] = MAD, 150 mg q8h × 7 days (n = 6)
[9] = SAD, single i.v. dose 10 mg (n = 6)
[10] = SAD, single i.v. dose 50 mg (n = 6)
[11] = SAD, single i.v. dose 100 mg (n = 6)
[12] = SAD, single i.v. dose 200 mg (n = 6)
[13] = SAD, single i.v. dose 400 mg (n = 6)

SMILES: CC(C)C[C@@H]1NC(=O)[C@@H](Cc2ccccc2)NC(=O)[C@H](CCN)NC(=O)[C@@H](NC(=O)[C@H](CN)NC(=O)[C@@H](NC(=O)C[C@H](CN)c2cccc(Cl)c2)[C@@H](C)O)CCNC(=O)[C@H]([C@@H](C)O)NC(=O)[C@H](CCN)NC(=O)[C@H](CCN)NC1=O [SPR206] (X1-T[Dap][Dab][Dab][dF]L[Dab][Dab]T; lactam 3-C (inferred))
- kidney cell cytotoxicity compared with PMB (kidney cell): lower kidney cell cytotoxicity
- exposure in the kidney compared with PMB [1]: lower exposure in the kidney of rats
- subjects with oral hypoesthesia (healthy subjects [2]): 6 subjects
- subjects with oral paresthesia (healthy subjects [2]): 5 subjects
- histopathological changes in the kidney (kidney): no histopathological changes in the kidney
- At least one treatment-related adverse event (healthy subjects [3]; [4]): 1 (16.7) No. (%) of subjects
- TEAE Infusion site phlebitis (healthy subjects [3]; [4]): 0 No. (%) of subjects
- TEAE Headache (healthy subjects [3]; [5]): 2 (33.3) No. (%) of subjects
- TEAE Infusion site phlebitis (healthy subjects [3]; [5]): 1 (16.7) No. (%) of subjects
- TEAE Paresthesia oral (healthy subjects [3]; [5]): 2 (33.3) No. (%) of subjects
- TEAE Headache (healthy subjects [3]; [6]): 2 (33.3) No. (%) of subjects
- TEAE Infusion site phlebitis (healthy subjects [3]; [6]): 1 (16.7) No. (%) of subjects
- TEAE Paresthesia oral (healthy subjects [3]; [6]): 1 (16.7) No. (%) of subjects
- TEAE Dizziness (healthy subjects [3]; [7]): 2 (33.3) No. (%) of subjects
- TEAE Headache (healthy subjects [3]; [7]): 1 (16.7) No. (%) of subjects
- TEAE Infusion site phlebitis (healthy subjects [3]; [7]): 1 (16.7) No. (%) of subjects
- TEAE Paresthesia oral (healthy subjects [3]; [7]): 1 (16.7) No. (%) of subjects
- TEAE Constipation (healthy subjects [3]; [8]): 1 (16.7) No. (%) of subjects
- TEAE Dry mouth (healthy subjects [3]; [8]): 2 (33.3) No. (%) of subjects
- TEAE Infusion site phlebitis (healthy subjects [3]; [8]): 2 (33.3) No. (%) of subjects
- TEAE Paresthesia oral (healthy subjects [3]; [8]): 2 (33.3) No. (%) of subjects
- TEAE leading to drug withdrawal (healthy subjects [3]; [8]): 2 (33.3) No. (%) of subjects
- At least one treatment-emergent adverse event (healthy subjects [3]; [9]): 1 (16.7) No. (%) of subjects
- At least one treatment-related adverse event (healthy subjects [3]; [9]): 1 (16.7) No. (%) of subjects
- At least one treatment-emergent adverse event (healthy subjects [3]; [10]): 1 (16.7) No. (%) of subjects
- At least one treatment-related adverse event (healthy subjects [3]; [10]): 1 (16.7) No. (%) of subjects
- At least one treatment-emergent adverse event (healthy subjects [3]; [11]): 1 (16.7) No. (%) of subjects
- At least one treatment-related adverse event (healthy subjects [3]; [11]): 1 (16.7) No. (%) of subjects
- At least one treatment-emergent adverse event (healthy subjects [3]; [12]): 2 (33.3) No. (%) of subjects
- At least one treatment-related adverse event (healthy subjects [3]; [12]): 2 (33.3) No. (%) of subjects
- TEAE Diarrhea (healthy subjects [3]; [13]): 2 (33.3) No. (%) of subjects
- TEAE Fatigue (healthy subjects [3]; [13]): 2 (33.3) No. (%) of subjects
- TEAE Paresthesia (healthy subjects [3]; [13]): 1 (16.7) No. (%) of subjects
- effect on renal function (serum creatinine and creatinine clearance) (healthy subjects [3]; human, in vivo): no clinically significant effect on renal function
- AEs of mild severity (healthy subjects [3]; in vivo): 84 % of all AEs
- changes in vital signs, physical examination, or ECG parameters (healthy subjects [3]; in vivo): no clinically significant changes
- effect on liver function (healthy subjects [3]; in vivo): no clinically significant effect on liver function
- effect on the ECG (healthy subjects [3]; in vivo): no effect on the ECG
- serious AEs (healthy subjects [3]; in vivo): No serious AEs
- severe AEs (healthy subjects [3]; in vivo): no severe AEs
- subjects with paresthesia events considered nervous system disorders (healthy subjects [3]; in vivo): 7.4%

Reference: PMC8448162, “Single- and Multiple-Ascending-Dose Study of the Safety, Tolerability, and Pharmacokinetics of the Polymyxin Derivative SPR206” (Antimicrobial Agents and Chemotherapy, 2021)
